Assay results published in patent US20180194762A1 (Pharmacyclics LLC, priority 2017, published 2018).
Where two headings read alike, the source gives them in different places.

Experiments:
Btk = target: T1, Btk (Homo sapiens, UniProt Q06187); experiment: Btk in vitro inhibitory activity (one of Method A TR-FRET, Method B electrophoretic mobility shift, Method C radiometric filter binding); assay type: biochemical
T1 construct: purified from insect cells as a full-length construct containing a N-terminal 6X-His tag; His6 (N); made in house; host or cells: insect cells (Method C)
Experimental: Example 62a: Btk In Vitro Inhibitory Activity (Method A)
Btk kinase activity is determined using a time-resolved fluorescence resonance energy transfer (TR-FRET) methodology. Measurements are performed in a reaction volume of 50 μL using 96-well assay plates. […] The reaction is quenched by the addition of 1.2 equivalents of EDTA (relative to divalent cation) in 25 μL of 1× Lance buffer (Perkin-Elmer). Streptavidin-APC (Perkin-Elmer) and Eu-labeled p-Tyr100 antibody (Perkin-Elmer) in 1× Lance buffer are added in a 25 μL volume to give final concentrations of 100 nM and 2.5 nM, respectively, and the mixture is allowed to incubate for one hour. The TR-FRET signal is measured on a multimode plate reader with an excitation wavelength (λEx) of 330 nm and detection wavelengths (λEm) of 615 and 665 nm. Activity is determined by the ratio of the fluorescence at 665 nm to that at 615 nm. For each compound, enzyme activity is measured at various concentrations of compound. Negative control reactions are performed in the absence of inhibitor in replicates of six, and two no-enzyme controls are used to determine baseline fluorescence levels. Inhibition constants, Ki(app), were obtained using the program BatchKi (Kuzmic et al. (2000), Anal. Biochem. 286:45-50). IC50s are obtained according to the equation:
IC50={Ki(app)/(1+[ATP]/Km^ATP)}+[E]total/2;
For all kinases, [ATP]=Km^ATP, [Btk]total=0.5 nM and [Lck]total=6 nM.
Example 62b: Btk In Vitro Inhibitory Activity (Method B)
Kinase activity is measured in vitro using electrophoretic mobility shift assay. The kinase reactions are assembled in a total volume of 25 μL in 384 well plates. The reactions comprise: BTK enzyme (1 nM, N-terminal His6-tagged, recombinant, full-length, human BTK purified from baculovirus Sf21 insect cell system, 293HEK, or other suitable source), inhibitor, ATP, fluorescently labeled peptide substrate (1 μM, FAM-GEEPLYWSFPAKKK-NH2) in a reaction buffer composed of 100 mM HEPES, pH7.5, 5 mM MgCl2 1 mM DTT, 0.1% bovine serum albumin, 0.01% Triton X-100, and 1% DMSO. The reaction is incubated and is quenched by the addition of termination buffer (100 mM HEPES, pH 7.5, 0.01% Triton X-100, 30 mM EDTA). The terminated reactions are analyzed using a 12 channel LabChip® 3000 microfluidic detection instrument (Caliper Life Sciences). The enzymatic phosphorylation of the peptide results in a change in net charge, enabling electrophoretic separation of product from substrate peptide. As substrate and product peptides are separated, two peaks of fluorescence are observed. Change in the relative fluorescence intensity of the substrate and product peaks is the parameter measured, reflecting enzyme activity. In the presence of an inhibitor, the ratio between product and substrate is altered: the signal of the product decreases, while the signal of the substrate increases.
Activity in each sample is determined as the product to sum ratio (PSR):P/(S+P), where P is the peak height of the product peptide and S is the peak height of the substrate peptide. For each compound, enzyme activity is measured at various concentrations (12 concentrations of compound spaced by 3× dilution intervals). Negative control samples (0%—inhibition in the absence of inhibitor) and positive control samples (100%—inhibition, in the presence of 20 mM EDTA) are assembled in replicates of four and are used to calculate %—inhibition values for each inhibitor at each concentration. Percent inhibition (Pinh) is determined using following equation:
Pinh=(PSR0%−PSRinh)/(PSR0%−PSR100%)*100, where PSRinh is the product sum ratio in the presence of inhibitor, PSR0% is the average product sum ration in the absence of inhibitor and PSR100% is the average product sum ratio in 100%—inhibition control samples.
The IC50 values of inhibitors are determined by 4 parameter sigmoidal dose-response model fitting of the inhibition curves (Pinh versus inhibitor concentration) using XLfit 4 software. […]

TEC = target: T2, TEC (Homo sapiens, UniProt P42680); experiment: Inhibition of a panel of kinases (in vitro HotSpot kinase assay, 33P-ATP, 1 μM ATP); assay type: biochemical; conditions: for TEC/Btk: ratio of TEC IC50 to Btk IC50 (selectivity)
T2 sequence (P42680 1-631): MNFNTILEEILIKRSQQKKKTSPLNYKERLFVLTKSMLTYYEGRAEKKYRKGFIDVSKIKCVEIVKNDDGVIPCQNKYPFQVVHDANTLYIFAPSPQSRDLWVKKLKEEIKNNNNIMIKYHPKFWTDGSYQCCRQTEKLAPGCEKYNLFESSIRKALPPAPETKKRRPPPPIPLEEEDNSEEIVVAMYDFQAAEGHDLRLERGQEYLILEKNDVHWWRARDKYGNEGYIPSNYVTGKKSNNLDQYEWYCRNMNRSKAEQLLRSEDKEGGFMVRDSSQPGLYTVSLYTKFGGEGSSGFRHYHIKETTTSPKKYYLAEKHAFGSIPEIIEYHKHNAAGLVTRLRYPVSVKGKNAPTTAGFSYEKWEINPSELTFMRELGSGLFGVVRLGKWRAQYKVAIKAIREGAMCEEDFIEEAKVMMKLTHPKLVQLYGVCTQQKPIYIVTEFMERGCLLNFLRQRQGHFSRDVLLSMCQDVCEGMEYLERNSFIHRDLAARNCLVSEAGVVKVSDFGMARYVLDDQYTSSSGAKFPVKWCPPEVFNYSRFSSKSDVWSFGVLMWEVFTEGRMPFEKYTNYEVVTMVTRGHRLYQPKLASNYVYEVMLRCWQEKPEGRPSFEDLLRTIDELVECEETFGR
Experimental: Example 63: Inhibition of a Panel of Kinases The degree of inhibition of a panel of kinases is determined using the in vitro HotSpot kinase assay (purified enzymes, ^33P-ATP, an appropriate substrate and 1 μM ATP).

[1] = method is one of A, B or C, not stated which, read-out: IC50 values against Btk
[2] = wild-type Btk, read-out: Btk-WT IC50

T1 sequence (Q06187 whole entry): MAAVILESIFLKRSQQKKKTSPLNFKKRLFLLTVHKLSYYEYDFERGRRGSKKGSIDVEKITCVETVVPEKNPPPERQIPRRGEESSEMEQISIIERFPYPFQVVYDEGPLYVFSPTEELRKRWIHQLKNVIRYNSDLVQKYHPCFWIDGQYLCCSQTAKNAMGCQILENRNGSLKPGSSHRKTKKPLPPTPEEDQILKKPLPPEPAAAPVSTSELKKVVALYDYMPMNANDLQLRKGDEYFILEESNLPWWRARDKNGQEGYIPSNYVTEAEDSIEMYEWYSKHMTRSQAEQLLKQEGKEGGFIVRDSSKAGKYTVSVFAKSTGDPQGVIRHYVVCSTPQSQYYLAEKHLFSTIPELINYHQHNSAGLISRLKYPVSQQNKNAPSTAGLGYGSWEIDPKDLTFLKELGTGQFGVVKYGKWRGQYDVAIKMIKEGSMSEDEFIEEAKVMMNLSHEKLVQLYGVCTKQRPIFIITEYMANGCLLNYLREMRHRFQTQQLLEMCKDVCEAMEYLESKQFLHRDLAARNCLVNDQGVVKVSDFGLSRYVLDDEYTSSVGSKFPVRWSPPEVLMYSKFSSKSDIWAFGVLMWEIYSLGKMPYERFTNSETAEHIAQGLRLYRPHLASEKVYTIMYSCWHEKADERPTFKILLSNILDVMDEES

CC(C)(C)c1nc(C(=O)NCc2ccc(-c3ccnc4[nH]nc(NC5CCNC5)c34)cc2F)no1 (stereo in doubt) [Example 50]
IC50 (Btk; [1]): < 10 nM

CC(C)(C)c1ccc(C(=O)Nc2cccc(-c3ccnc4[nH]nc(N[C@H]5CC[C@H](O)CC5)c34)c2)cc1 [Compound 13, 4-tert-butyl-N-[3-(3-{[(1r,4r)-4-hydroxycyclohexyl]amino}-1H-pyrazolo[3,4-b]pyridin-4-yl)phenyl]benzamide]
TEC/Btk (TEC): 10

Cc1c(NC(=O)c2ccc(C(C)(C)C)cc2)cccc1-c1ccnc2[nH]nc(N[C@H]3CC[C@H](O)CC3)c12 [Compound 14, 4-(tert-butyl)-N-(3-(3-(((1r,4r)-4-hydroxycyclohexyl)amino)-1H-pyrazolo[3,4-b]pyridin-4-yl)-2-methylphenyl)benzamide]
TEC/Btk (TEC): 10

CC(C)(C)c1ccc(C(=O)Nc2ccc(-c3ccnc4[nH]nc(N[C@H]5CC[C@H](O)CC5)c34)cc2F)cc1 [Compound 15, 4-tert-butyl-N-[2-fluoro-4-(3-{[(1r,4r)-4-hydroxycyclohexyl]amino}-1H-pyrazolo[3,4-b]pyridin-4-yl)phenyl]benzamide]
TEC/Btk (TEC): 10

C=CC(=O)N1CC[C@@H](Nc2n[nH]c3nccc(-c4ccc(C5(NC(=O)c6noc(C(C)(C)C)n6)CC5)cc4)c23)C1 [Example 4, 5-tert-butyl-N-{1-[4-(3-{[(3R)-1-(prop-2-enoyl)pyrrolidin-3-yl]amino}-1H-pyrazolo[3,4-b]pyridin-4-yl)phenyl]cyclopropyl}-1,2,4-oxadiazole-3-carboxamide]
IC50 (Btk; [1]): < 10 nM

C=CC(=O)N1CC[C@@H](Nc2n[nH]c3nccc(-c4ccc(CNC(=O)c5ccc(C(C)(C)C)cc5)c(F)c4)c23)C1 [Example 6, 4-tert-butyl-N-{[2-fluoro-4-(3-{[(3R)-1-(prop-2-enoyl)pyrrolidin-3-yl]amino}-1H-pyrazolo[3,4-b]pyridin-4-yl)phenyl]methyl}benzamide]
IC50 (Btk; [1]): < 10 nM

CC#CC(=O)N1CC[C@@H](Nc2n[nH]c3nccc(-c4ccc(CNC(=O)c5ccc(C(C)(C)C)cc5)c(F)c4)c23)C1 [Example 7, N-{[4-(3-{[(3R)-1-(but-2-ynoyl)pyrrolidin-3-yl]amino}-1H-pyrazolo[3,4-b]pyridin-4-yl)-2-fluorophenyl]methyl}-4-tert-butylbenzamide]
IC50 (Btk; [1]): < 10 nM

C=CC(=O)N1CC[C@@H](Nc2n[nH]c3nccc(-c4cccc(NC(=O)c5ccc(C(C)(C)C)cc5)c4C)c23)C1 [Example 9, 4-tert-butyl-N-[2-methyl-3-(3-{[(3R)-1-(prop-2-enoyl)pyrrolidin-3-yl]amino}-1H-pyrazolo[3,4-b]pyridin-4-yl)phenyl]benzamide]
IC50 (Btk; [1]): < 10 nM

C=CC(=O)N1CC[C@@H](Nc2n[nH]c3nccc(-c4cccc(-n5ccc6cc(C7CC7)cc(F)c6c5=O)c4CO)c23)C1 [Example 18, 6-cyclopropyl-8-fluoro-2-[2-(hydroxymethyl)-3-(3-{[(3R)-1-(prop-2-enoyl)pyrrolidin-3-yl]amino}-1H-pyrazolo[3,4-b]pyridin-4-yl)phenyl]-1,2-dihydroisoquinolin-1-one]
IC50 (Btk; [1]): < 10 nM

C=CC(=O)N1CC[C@@H](Nc2n[nH]c3nccc(-c4ccc(CNC(=O)c5ccccc5)c(F)c4)c23)C1 [Example 33, N-{[2-fluoro-4-(3-{[(3R)-1-(prop-2-enoyl)pyrrolidin-3-yl]amino}-1H-pyrazolo[3,4-b]pyridin-4-yl)phenyl]methyl}benzamide]
IC50 (Btk; [1]): < 10 nM

C=CC(=O)N1CC[C@@H](Nc2n[nH]c3nccc(-c4ccc(CNC(=O)c5ccc(C)cc5)c(F)c4)c23)C1 [Example 34, N-{[2-fluoro-4-(3-{[(3R)-1-(prop-2-enoyl)pyrrolidin-3-yl]amino}-1H-pyrazolo[3,4-b]pyridin-4-yl)phenyl]methyl}-4-methylbenzamide]
IC50 (Btk; [1]): < 10 nM

C[C@@H](NC(=O)c1nc(C(C)(C)C)no1)c1ccc(-c2ccnc3[nH]nc(NC4CCCCC4)c23)cc1 [Example 202, 3-tert-butyl-N-[(1R)-1-{4-[3-(cyclohexylamino)-1H-pyrazolo[3,4-b]pyridin-4-yl]phenyl}ethyl]-1,2,4-oxadiazole-5-carboxamide]
IC50 (Btk; [2]): 31 nM

CC(C)(C)c1noc(C(=O)NCc2ccc(-c3ccnc4[nH]nc(N5CCCC5=O)c34)cc2F)n1 [Example 245, 3-tert-butyl-N-({2-fluoro-4-[3-(2-oxopyrrolidin-1-yl)-1H-pyrazolo[3,4-b]pyridin-4-yl]phenyl}methyl)-1,2,4-oxadiazole-5-carboxamide]
IC50 (Btk; [2]): 145 nM

C[C@H]1CC[C@@H](Nc2n[nH]c3nccc(-c4ccc(CNC(=O)c5noc(C(C)(C)C)n5)cc4CO)c23)CN1C(=O)N(C)C [Example 251, (2S,5R)-5-({4-[4-{[(5-tert-butyl-1,2,4-oxadiazole-3-carbonyl)amino]methyl}-2-(hydroxymethyl)phenyl]-1H-pyrazolo[3,4-b]pyridin-3-yl}amino)-N,N,2-trimethylpiperidine-1-carboxamide]
IC50 (Btk; [2]): 64.6 nM

CC(C)(C)c1nc(C(=O)NCc2ccc(-c3ccnc4[nH]nc(OC5CCNC5)c34)cc2F)no1 (centres unmarked) [Example 269, 5-tert-butyl-N-[(2-fluoro-4-{3-[(pyrrolidin-3-yl)oxy]-1H-pyrazolo[3,4-b]pyridin-4-yl}phenyl)methyl]-1,2,4-oxadiazole-3-carboxamide]
IC50 (Btk; [2]): 26.3 nM

C=CC(=O)N1CC[C@@H](Nc2n[nH]c3nccc(-c4ccnc(NC(=O)c5noc(C(C)(C)C)n5)c4C)c23)C1 [Example 288, 5-tert-butyl-N-[3-methyl-4-(3-{[(3R)-1-(prop-2-enoyl)pyrrolidin-3-yl]amino}-1H-pyrazolo[3,4-b]pyridin-4-yl)pyridin-2-yl]-1,2,4-oxadiazole-3-carboxamide]
IC50 (TEC; HotSpot kinase assay, 1 μM ATP): 9680 nM

C[C@H](NC(=O)c1noc(C(C)(C)C)n1)c1ccc(-c2ccnc3[nH]nc(N[C@@H]4CCNC4)c23)cc1F [Example 290, 5-tert-butyl-N-{(1S)-1-[2-fluoro-4-(3-{[(3R)-pyrrolidin-3-yl]amino}-1H-pyrazolo[3,4-b]pyridin-4-yl)phenyl]ethyl}-1,2,4-oxadiazole-3-carboxamide]
IC50 (Btk; [2]): 81.4 nM
